± gives the expanded uncertainty stated by the source.
Experiments:
[1] = 101 kPa, Liquid; for speed of sound: Sing-around technique in a fixed-path interferometer; for mass density: Vibrating tube method
[2] = xn = mol fraction of the nth substance listed; settings: 101 kPa, Liquid, x1 = 1; for speed of sound: Sing-around technique in a fixed-path interferometer; for mass density: Vibrating tube method

Row | SMILES | speed of sound ([1]; 293.15 K) | mass density ([1]; 293.15 K) | speed of sound ([1]; 298.15 K) | mass density ([1]; 298.15 K) | speed of sound ([1]; 303.15 K) | mass density ([1]; 303.15 K) | speed of sound ([1]; 308.15 K) | mass density ([1]; 308.15 K) | speed of sound ([1]; 313.15 K) | mass density ([1]; 313.15 K) | speed of sound ([1]; 318.15 K) | mass density ([1]; 318.15 K) | speed of sound ([1]; 323.15 K) | mass density ([1]; 323.15 K) | speed of sound ([2]; 298.15 K) | mass density ([2]; 298.15 K) | speed of sound ([2]; 303.15 K) | mass density ([2]; 303.15 K) | speed of sound ([2]; 308.15 K) | mass density ([2]; 308.15 K) | further results
1 | CC(C)(N)CO [2-amino-2-methylpropan-1-ol] | 1501.4 ± 5 m/s | 936.751 ± 4.8 kg/m3 | 1483.4 ± 5 m/s | 932.596 ± 4.7 kg/m3 | 1461.2 ± 5 m/s | 928.395 ± 4.7 kg/m3 | 1442.4 ± 5 m/s | 924.174 ± 4.6 kg/m3 | 1423.8 ± 5 m/s | 919.945 ± 4.6 kg/m3 | 1405.3 ± 5 m/s | 915.702 ± 4.6 kg/m3 | 1386.9 ± 5 m/s | 911.431 ± 4.5 kg/m3 |  |  |  |  |  |  | 
2 | NCCO [2-aminoethan-1-ol] | 1735.5 ± 1.3 m/s | 1015.98 ± 0.24 kg/m3 | 1719.2 ± 1.3 m/s | 1012.02 ± 0.24 kg/m3 | 1703.1 ± 1.3 m/s | 1008 ± 0.24 kg/m3 | 1686.8 ± 1.3 m/s | 1004.02 ± 0.23 kg/m3 | 1670.5 ± 1.3 m/s | 1000.04 ± 0.23 kg/m3 | 1654.2 ± 1.3 m/s | 996.029 ± 0.23 kg/m3 | 1637.9 ± 1.3 m/s | 992.014 ± 0.23 kg/m3 |  |  |  |  |  |  | 
3 | NCCO [2-aminoethan-1-ol] + CC(C)(N)CO |  |  |  |  |  |  |  |  |  |  |  |  |  |  | 1719.2 ± 1.3 m/s | 1012.02 ± 0.24 kg/m3 | 1703.1 ± 1.3 m/s | 1008 ± 0.24 kg/m3 | 1686.8 ± 1.3 m/s | 1004.02 ± 0.23 kg/m3 | speed of sound ([2]; 293.15 K): 1735.5 ± 1.3 m/s; mass density ([2]; 293.15 K): 1015.98 ± 0.24 kg/m3; speed of sound ([2]; 313.15 K): 1670.5 ± 1.3 m/s; mass density ([2]; 313.15 K): 1000.04 ± 0.23 kg/m3; speed of sound ([2]; 318.15 K): 1654.2 ± 1.3 m/s; mass density ([2]; 318.15 K): 996.029 ± 0.23 kg/m3; speed of sound ([2]; 323.15 K): 1637.9 ± 1.3 m/s; mass density ([2]; 323.15 K): 992.014 ± 0.23 kg/m3
4 | NCCO [2-aminoethan-1-ol] + CN(CCO)CCO |  |  |  |  |  |  |  |  |  |  |  |  |  |  | 1719.2 ± 1.3 m/s | 1012.02 ± 0.24 kg/m3 | 1703.1 ± 1.3 m/s | 1008 ± 0.24 kg/m3 | 1686.8 ± 1.3 m/s | 1004.02 ± 0.23 kg/m3 | speed of sound ([2]; 293.15 K): 1735.5 ± 1.3 m/s; mass density ([2]; 293.15 K): 1015.98 ± 0.24 kg/m3; speed of sound ([2]; 313.15 K): 1670.5 ± 1.3 m/s; mass density ([2]; 313.15 K): 1000.04 ± 0.23 kg/m3; speed of sound ([2]; 318.15 K): 1654.2 ± 1.3 m/s; mass density ([2]; 318.15 K): 996.029 ± 0.23 kg/m3; speed of sound ([2]; 323.15 K): 1637.9 ± 1.3 m/s; mass density ([2]; 323.15 K): 992.014 ± 0.23 kg/m3
5 | NCCO [2-aminoethan-1-ol] + OCCN(CCO)CCO |  |  |  |  |  |  |  |  |  |  |  |  |  |  | 1719.2 ± 1.3 m/s | 1012.02 ± 0.24 kg/m3 | 1703.1 ± 1.3 m/s | 1008 ± 0.24 kg/m3 | 1686.8 ± 1.3 m/s | 1004.02 ± 0.23 kg/m3 | speed of sound ([2]; 313.15 K): 1670.5 ± 1.3 m/s; mass density ([2]; 313.15 K): 1000.04 ± 0.23 kg/m3; speed of sound ([2]; 318.15 K): 1654.2 ± 1.3 m/s; mass density ([2]; 318.15 K): 996.029 ± 0.23 kg/m3; speed of sound ([2]; 323.15 K): 1637.9 ± 1.3 m/s; mass density ([2]; 323.15 K): 992.014 ± 0.23 kg/m3
6 | CN(CCO)CCO [N-methyldiethanolamine] | 1585.5 ± 2.1 m/s | 1042.2 ± 0.92 kg/m3 | 1570.1 ± 2.1 m/s | 1038.29 ± 0.92 kg/m3 | 1554.8 ± 2.1 m/s | 1034.36 ± 0.91 kg/m3 | 1539.5 ± 2.1 m/s | 1030.43 ± 0.9 kg/m3 | 1524.2 ± 2.1 m/s | 1026.48 ± 0.89 kg/m3 | 1508.8 ± 2.1 m/s | 1022.53 ± 0.88 kg/m3 | 1493.4 ± 2.1 m/s | 1018.58 ± 0.88 kg/m3 |  |  |  |  |  |  | 
7 | OCCN(CCO)CCO [triethanolamine] |  |  | 1610.5 ± 1.3 m/s | 1120.82 ± 0.33 kg/m3 | 1600.5 ± 1.3 m/s | 1118.06 ± 0.32 kg/m3 | 1595.5 ± 1.3 m/s | 1115.26 ± 0.32 kg/m3 | 1587 ± 1.3 m/s | 1112.4 ± 0.32 kg/m3 | 1578.8 ± 1.3 m/s | 1109.6 ± 0.32 kg/m3 | 1570.6 ± 1.3 m/s | 1106.78 ± 0.32 kg/m3 |  |  |  |  |  |  | 

From the NIST ThermoML archive (doi:10.1021/je900437b)
